Consider 7 substances from patent US20240247080A1, “GLP1/GIP/NPY2 RECEPTOR TRIPLE AGONISTS” (Boehringer Ingelheim International GmbH, priority 2022, published 2024).

Read-outs that look alike come from different tables or passages of the source. Starred links: 1 amine or outer side, 2 acyl side, 3 side chain; linkers in the order of their positions; H or OH if unused. Non-standard residues stand in square brackets, D forms with d. Groups on a side chain read outwards from the residue. *: point of attachment. C20 diacid = O=C(O)CCCCCCCCCCCCCCCCCCC(=O)*; C18 diacid = O=C(O)CCCCCCCCCCCCCCCCC(=O)*; γGlu = O=C(O)[C@H](CCC(=O)[*:2])N[*:1]; εLys = N[C@@H](CCCCN[*:1])C(=O)[*:2]; AEEA = NCCOCCOCC(=O)O; Aib = CC(C)(N)C(=O)O

Holding throughout (assay type): cell-based
Settings in all cases: CreLuc reporter gene assay
(In a reporter assay the amount or activity of a reporter protein is the signal.)

One assay deals with T1, hNPY2R (Homo sapiens, UniProt P49146).
T1 construct: expressed in transfected cells; host or cells: HEK-293 cells carrying a CRE-luciferase reporter gene
T1 sequence (P49146 1-381): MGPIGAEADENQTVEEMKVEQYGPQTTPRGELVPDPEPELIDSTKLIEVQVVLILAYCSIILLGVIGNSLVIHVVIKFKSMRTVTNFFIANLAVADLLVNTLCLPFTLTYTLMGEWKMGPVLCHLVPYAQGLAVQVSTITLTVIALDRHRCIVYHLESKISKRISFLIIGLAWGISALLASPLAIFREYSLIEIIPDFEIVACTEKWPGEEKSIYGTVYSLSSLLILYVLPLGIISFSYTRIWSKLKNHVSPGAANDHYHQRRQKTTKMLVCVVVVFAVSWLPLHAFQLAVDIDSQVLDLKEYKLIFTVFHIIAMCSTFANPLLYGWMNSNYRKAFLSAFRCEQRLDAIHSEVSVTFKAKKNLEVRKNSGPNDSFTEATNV
Put plainly: hNPY2R CreLuc reporter gene assay in 0.5% and 100% plasma. The method, boiled down: (§1)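 HEK cells (GLP-1R, NPY2R) or CHO cells (GIPR) carrying a CRE-luciferase reporter, incubated 4 h at 37 °C with peptides in HBSS/20 mM HEPES pH 7.4 plus 0.5% human plasma, or in 100% plasma. Luminescence read; EC50 from 8-point variable-slope sigmoid fits.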

The target of another assay is T2, hGLP1R (Homo sapiens, UniProt P43220).
T2 construct: expressed in transfected cells; host or cells: HEK-293 cells carrying a CRE-luciferase reporter gene
Put plainly: hGLP1R CreLuc reporter gene assay in 0.5% and 100% plasma. The method, boiled down: as §1

The target of another assay is T3, hGIPR (Homo sapiens, UniProt P48546).
T3 construct: expressed in transfected cells; host or cells: CHO cells carrying a CRE-luciferase reporter gene
T3 sequence (P48546 22-466): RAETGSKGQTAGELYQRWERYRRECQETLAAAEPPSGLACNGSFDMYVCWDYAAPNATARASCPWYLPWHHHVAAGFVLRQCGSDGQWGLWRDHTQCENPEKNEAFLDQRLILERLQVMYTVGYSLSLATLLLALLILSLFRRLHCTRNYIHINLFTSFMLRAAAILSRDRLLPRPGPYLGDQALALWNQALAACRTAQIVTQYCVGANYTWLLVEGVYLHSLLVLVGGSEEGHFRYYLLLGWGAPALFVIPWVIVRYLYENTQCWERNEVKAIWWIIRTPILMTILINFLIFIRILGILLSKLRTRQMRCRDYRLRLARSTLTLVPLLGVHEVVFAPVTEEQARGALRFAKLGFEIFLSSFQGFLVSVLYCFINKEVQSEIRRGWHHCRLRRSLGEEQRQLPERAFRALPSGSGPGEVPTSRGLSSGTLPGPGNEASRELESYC
Description: hGIPR CreLuc reporter gene assay in 0.5% and 100% plasma. An outline of the steps:
as §1

[1] abbreviates: 0.5% human plasma, read-out: hNPY2R 0.5% hP.
The mark [2] stands for this setting: 0.5% human plasma, read-out: hGLP1R 0.5% hP.
Setting [3] is: 0.5% human plasma, read-out: hGIPR 0.5% hP.
[4] abbreviates: 100% human plasma, read-out: hGIPR 100% hP.
The mark [5] stands for this setting: 100% human plasma, read-out: hGLP1R 100% hP.

T2 sequence (P43220 24-463): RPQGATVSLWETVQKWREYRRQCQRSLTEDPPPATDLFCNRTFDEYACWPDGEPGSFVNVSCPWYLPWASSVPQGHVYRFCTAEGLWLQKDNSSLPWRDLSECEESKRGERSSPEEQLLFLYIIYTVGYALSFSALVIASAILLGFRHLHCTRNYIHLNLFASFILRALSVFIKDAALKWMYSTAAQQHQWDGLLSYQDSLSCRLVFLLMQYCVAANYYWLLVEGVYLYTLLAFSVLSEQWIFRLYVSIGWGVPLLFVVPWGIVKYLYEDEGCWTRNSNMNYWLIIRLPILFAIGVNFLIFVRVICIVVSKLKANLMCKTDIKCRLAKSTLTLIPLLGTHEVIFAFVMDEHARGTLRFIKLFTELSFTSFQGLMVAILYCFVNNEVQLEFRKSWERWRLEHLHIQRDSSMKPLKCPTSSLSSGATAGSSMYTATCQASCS

Turning to “H-Y[Aib]EGTFTSDYSI[Aib]LEGQAQ[Aib]AFVEWLIK([εLys-γGlu-γGlu-γGlu-γGlu-γGlu-γGlu-C20 diacid])GGPSSGASLRHYYNWLTRQRY-NH2 [Compound 99, Y-Aib-E-G-T-F-T-S-D-Y-S-I-Aib-L-E-G-Q-A-Q-Aib-A-F-V-E-W-L-I-K(1,3)-GGPSSGASLRHYYNWLTRQRY-NH2.C20DA-gGlu-gGlu-gGlu-gGlu-gGlu-gGlu-eLys(1,2)]”, the EC50 on hNPY2R (setting [1]) was determined as 16.8 nM; at hGLP1R (setting [2]), 0.41 nM; at hGIPR (setting [3]) it was 0.91 nM.

For “H-Y[Aib]EGTFTSDYSI[Aib]LERQAQ[Aib]AFVEWLIK([εLys-γGlu-γGlu-γGlu-γGlu-γGlu-γGlu-C20 diacid])GGPSSGASLRHYYNWLTRQRY-NH2 [Compound 131, Y-Aib-E-G-T-F-T-S-D-Y-S-I-Aib-L-E-R-Q-A-Q-Aib-A-F-V-E-W-L-I-K(1,3)-GGPSSGASLRHYYNWLTRQRY-NH2.C20DA-gGlu-gGlu-gGlu-gGlu-gGlu-gGlu-eLys(1,2)]”, the EC50 at hNPY2R (setting [1]) amounted to 18.2 nM; on hGLP1R (setting [2]), 0.11 nM; at hGIPR (setting [3]), 0.35 nM; on hGIPR (setting [4]), 2.94 nM.

“H-Y[Aib]EGTFTSDYSI[Aib]LEKQAE[Aib]AFVEWLIK([γGlu-γGlu-γGlu-γGlu-C18 diacid])GGPSEGASLRHYYNWLTRQRY-NH2 [Compound 262, Y-Aib-E-G-T-F-T-S-D-Y-S-I-Aib-L-E-K-Q-A-E-Aib-A-F-V-E-W-L-I-K(1,3)-GGPSEGASLRHYYNWLTRQRY-NH2.C18DA-gGlu-gGlu-gGlu-gGlu(1,2)]”: the EC50 at hNPY2R (setting [1]) came to 13.2 nM; on hGLP1R (setting [2]) it was 0.13 nM; at hGIPR (setting [3]), 0.08 nM; at hGIPR (setting [4]), 0.53 nM.

Take “H-Y[Aib]EGTFTSDYSI[Aib]LEKQAQ[Aib]AFVQWLIK([AEEA-AEEA-γGlu-γGlu-γGlu-γGlu-C20 diacid])GGPEEGASLRHYYNWLTRQRY-NH2 [Compound 193, Y-Aib-E-G-T-F-T-S-D-Y-S-I-Aib-L-E-K-Q-A-Q-Aib-A-F-V-Q-W-L-I-K(1,3)-GGPEEGASLRHYYNWLTRQRY-NH2.C20DA-gGlu-gGlu-gGlu-gGlu-OEG-OEG(1,2)]”: the EC50 on hNPY2R (setting [1]) was determined as 13.6 nM; at hGLP1R (setting [2]) it was 0.36 nM; at hGIPR (setting [3]) it was 0.5 nM.

With “H-Y[Aib]EGTFTSDYSI[Aib]LEKQAQ[Aib]EFVEWLIK([γGlu-γGlu-γGlu-γGlu-γGlu-γGlu-C20 diacid])GGPSSGASLRHYYNWLTRQRY-NH2 [Compound 198, Y-Aib-E-G-T-F-T-S-D-Y-S-I-Aib-L-E-K-Q-A-Q-Aib-E-F-V-E-W-L-I-K(1,3)-GGPSSGASLRHYYNWLTRQRY-NH2.C20DA-gGlu-gGlu-gGlu-gGlu-gGlu-glu(1,2)]”, the EC50 on hNPY2R (setting [1]) amounted to 13.1 nM; on hGLP1R (setting [2]), 0.47 nM; on hGIPR (setting [3]) it was 0.26 nM.

For the substance “H-Y[Aib]EGTFTSDYSI[Aib]LEKQAQ[Aib]AFVEWLIK([AEEA-AEEA-γGlu-γGlu-γGlu-γGlu-C18 diacid])GGPSSGASLRHYYNWLTRQRY-NH2 [Compound 254, Y-Aib-E-G-T-F-T-S-D-Y-S-I-Aib-L-E-K-Q-A-Q-Aib-A-F-V-E-W-L-I-K(1,3)-GGPSSGASLRHYYNWLTRQRY-NH2.C18DA-gGlu-gGlu-gGlu-gGlu-OEG-OEG(1,2)]”, the EC50 came out at 17.8 nM on hNPY2R (setting [1]); 30.9 nM on hNPY2R (100% human plasma, read-out: hNPY2R 100% hP); 0.07 nM on hGLP1R (setting [2]); 1.69 nM at hGLP1R (setting [5]); 0.22 nM at hGIPR (setting [3]); 0.63 nM on hGIPR (setting [4]).

With “H-Y[Aib]EGTFTSDYSI[Aib]LEKQAE[Aib]AFVQWLIK([εLys-γGlu-γGlu-γGlu-γGlu-C18 diacid])GGPSEPASLRHYYNWLTRQRY-NH2 [Compound 54, Y-Aib-E-G-T-F-T-S-D-Y-S-I-Aib-L-E-K-Q-A-E-Aib-A-F-V-Q-W-L-I-K(1,3)-GGPSEPASLRHYYNWLTRQRY-NH2.C18DA-gGlu-gGlu-gGlu-gGlu-eLys(1,2)]”, the EC50 at hNPY2R (setting [1]) turned out to be 14 nM; on hGLP1R (setting [2]) it was 0.22 nM; at hGLP1R (setting [5]), 7.71 nM; on hGIPR (setting [3]), 0.24 nM.
